Source: patent US6525001B1, “Substituted pyrimidine and pyridine herbicides” (Mid-American Commercialization Corporation, priority 1997, dated 2003)

Columns and labels:
Format in all cases: in vivo
[1] = test system: field bindweed (Convolvulus arvensis); assay: Test C; details: PREEMERGENCE
[2] = test system: soybean (Glycine max); assay: Test C; design: key: 0 was no effect; 100 was complete control; details: PREEMERGENCE
[3] = test system: redroot pigweed (Amaranthus retroflexus); assay: Test C; design: key: 0 was no effect; 100 was complete control; details: PREEMERGENCE
[4] = test system: lambsquarters (Chenopodium album); assay: Test C; design: key: 0 was no effect; 100 was complete control; details: PREEMERGENCE
[5] = test system: fall panicum (Panicum dichotomiflorum); assay: Test C; design: key: 0 was no effect; 100 was complete control; details: PREEMERGENCE
[6] = test system: giant foxtail (Setaria faberii); assay: Test C; design: key: 0 was no effect; 100 was complete control; details: PREEMERGENCE
[7] = test system: wild poinsettia (Euphorbia heterophylla); assay: Test C; design: key: 0 was no effect; 100 was complete control; details: PREEMERGENCE
[8] = test system: cotton (Gossypium hirsutum); assay: Test C; design: key: 0 was no effect; 100 was complete control; details: PREEMERGENCE
[9] = test system: surinam grass (Brachiaria decumbens); assay: Test C; design: key: 0 was no effect; 100 was complete control; details: PREEMERGENCE
[10] = test system: common ragweed (Ambrosia elatior); assay: Test C; design: key: 0 was no effect; 100 was complete control; details: PREEMERGENCE
[11] = test system: eastern black nightshade (Solanum ptycanthum); assay: Test C; details: PREEMERGENCE
[12] = test system: bamyardgrass (Echinochloa crus-galli); assay: Test B flood test
Summary of the method: (§1)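 Plants were grown to the 2-leaf stage before treatment with test chemical, then held in a greenhouse for twelve to sixteen days. Injury was visually rated against untreated controls on a 0–10 scale, where 0 is no effect and 10 is complete control.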

[13] = test system: smallflower flatsedge (Cyperus difformis); assay: Test B flood test
Summary of the method: as §1

[14] = test system: rice (Oryza sativa); assay: Test B flood test
Summary of the method: as §1

[15] = test system: duck salad (Heteranthera limosa); assay: Test B flood test
Summary of the method: as §1

[16] = test system: purple nutsedge (Cyperus rotundus); assay: Test B pre-/postemergence; design: key: 0 is no effect; 10 is complete control
Summary of the method: (§2)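 Seeds were planted and sprayed preemergence, while plants at 2 to 18 cm (1- to 4-leaf stage) were sprayed postemergence at the same time, with test chemical in a non-phytotoxic solvent mixture containing surfactant. After twelve to sixteen days in a greenhouse, injury was rated visually against untreated controls on a 0–10 scale.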

[17] = test system: wild oat (Avena fatua); assay: Test B pre-/postemergence; design: key: 0 is no effect; 10 is complete control
Summary of the method: as §2

[18] = Rate 62 g/ha, Postemergence (flood test)
[19] = Rate 125 g/ha, Postemergence, flood test
[20] = Rate 250 g/ha, Postemergence (flood test species)

In the case of `Cc1cnc(-c2ccc(C(F)(F)F)cc2)nc1C(Cl)c1cccc(C(F)(F)F)c1` (racemic) [Compound 21], the “Plant response rating, Field bindweed” value ([1]; Rate 70 g/ha) is reported as 40, the “Plant response rating, Field bindweed” value ([1]; Rate 140 g/ha) is reported as 40 and the “Plant response rating, Soybean” value ([2]; Rate 35 g/ha) is reported as 0. For the same compound, the “Plant response rating, Soybean” value ([2]; Rate 70 g/ha) was 0, the “Plant response rating, Soybean” value ([2]; Rate 140 g/ha) was 5 and the “Plant response rating, Redroot pigweed” value ([3]; Rate 70 g/ha) was 80. For the same compound, the “Plant response rating, Redroot pigweed” value ([3]; Rate 140 g/ha) was 100, the “Plant response rating, Lambsquarters” value ([4]; Rate 35 g/ha) was 0 and the “Plant response rating, Lambsquarters” value ([4]; Rate 70 g/ha) was 5. For the same compound, the “Plant response rating, Lambsquarters” value ([4]; Rate 140 g/ha) was 90, the “Plant response rating, Fall panicum” value ([5]; Rate 35 g/ha) was 10 and the “Plant response rating, Fall panicum” value ([5]; Rate 70 g/ha) was 0. The “Plant response rating, Fall panicum” value ([5]; Rate 140 g/ha) was 90, the “Plant response rating, Giant foxtail” value ([6]; Rate 35 g/ha) was 85 and the “Plant response rating, Giant foxtail” value ([6]; Rate 70 g/ha) was 100. The “Plant response rating, Giant foxtail” value ([6]; Rate 140 g/ha) was 100, the “Plant response rating, Wild poinsettia” value ([7]; Rate 35 g/ha) was 0 and the “Plant response rating, Wild poinsettia” value ([7]; Rate 70 g/ha) was 5. For the same compound, the “Plant response rating, Wild poinsettia” value ([7]; Rate 140 g/ha) was 5, the “Plant response rating, Cotton” value ([8]; Rate 35 g/ha) was 0 and the “Plant response rating, Cotton” value ([8]; Rate 70 g/ha) was 5. For the same compound, the “Plant response rating, Cotton” value ([8]; Rate 140 g/ha) was 20, the “Plant response rating, Surinam grass” value ([9]; Rate 35 g/ha) was 0 and the “Plant response rating, Surinam grass” value ([9]; Rate 70 g/ha) was 5. The “Plant response rating, Surinam grass” value ([9]; Rate 140 g/ha) was 10, the “Plant response rating, Common ragweed” value ([10]; Rate 35 g/ha) was 0 and the “Plant response rating, Common ragweed” value ([10]; Rate 70 g/ha) was 0. The “Plant response rating, Common ragweed” value ([10]; Rate 140 g/ha) was 20, the “Plant response rating, E. blacknightsh” value ([11]; Rate 35 g/ha) was 40 and the “Plant response rating, E. blacknightsh” value ([11]; Rate 70 g/ha) was 80. The “Plant response rating, E. blacknightsh” value ([11]; Rate 140 g/ha) was 85, the “Plant response rating, Barnyardgrass” value [12, 18] was 3 and the “Plant response rating, Barnyardgrass” value [12, 19] was 4. For the same compound, the “Plant response rating, Barnyardgrass” value [12, 20] was 4, the “Plant response rating, S. Flatsedge” value [13, 18] was 6 and the “Plant response rating, S. Flatsedge” value [13, 19] was 8. For the same compound, the “Plant response rating, S. Flatsedge” value [13, 20] was 9, the “Plant response rating, Rice” value [14, 18] was 3 and the “Plant response rating, Rice” value [14, 19] was 4. For the same compound, the “Plant response rating, Rice” value [14, 20] was 5, the “Plant response rating, Ducksalad” value [15, 18] was 3 and the “Plant response rating, Ducksalad” value [15, 19] was 4. For the same compound, the “Plant response rating, Ducksalad” value [15, 20] was 5, the “Plant response rating, Nutsedge” value ([16]; Rate 62 g/ha, Postemergence) was 2 and the “Nutsedge plant response rating” value ([16]; Rate 62 g/ha, Preemergence) was 0. The “Plant response rating, Nutsedge” value ([16]; Rate 125 g/ha, Postemergence) was 2, the “Nutsedge plant response rating” value ([16]; Rate 125 g/ha, Preemergence) was 0 and the “Plant response rating, Nutsedge” value ([16]; Rate 250 g/ha, Postemergence) was 3. For the same compound, the “Plant response rating, Nutsedge” value ([16]; Rate 250 g/ha, Preemergence) was 0, the “Plant response rating, Wild oats” value ([17]; Rate 62 g/ha, Postemergence) was 4 and the “Wild oats plant response rating” value ([17]; Rate 62 g/ha, Preemergence) was 4. The “Plant response rating, Wild oats” value ([17]; Rate 125 g/ha, Postemergence) was 5, the “Wild oats plant response rating” value ([17]; Rate 125 g/ha, Preemergence) was 5 and the “Plant response rating, Wild oats” value ([17]; Rate 250 g/ha, Postemergence) was 6. The “Plant response rating, Wild oats” value ([17]; Rate 250 g/ha, Preemergence) was 8.
